Key:
P-P70S6K (T389) = experiment: Cell based AlphaLISA assay, inhibition of P-P70S6K (T389) in MDA-MB-468 cells; conditions: Homo sapiens, 4 h, 0.017-1,000 nM, two to four hours at 37° C., AlphaLisa SureFire Ultra, read-out: pIC50 for Inhibition of mTORC1 and mTORC2 Substrate Phosphorylation, p-P70S6K-(T389) (converted)
Method in brief: (§1)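 mTORC1 and mTORC2 activity in cells tracked through AlphaLISA SureFire Ultra detection of the phosphoproteins after incubation and cell lysis; Alpha signal read in duplicate. IC50 from normalized concentration–response regression with control-based normalization.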

P-Akt (S473) = experiment: Cell based AlphaLISA assay, inhibition of P-Akt (S473) in MDA-MB-468 cells; conditions: Homo sapiens, 4 h, 0.017-1,000 nM, two to four hours at 37° C., AlphaLisa SureFire Ultra, read-out: pIC50 for Inhibition of mTORC1 and mTORC2 Substrate Phosphorylation, p-AKT1/2/3-(S473) (converted)
Method in brief: as §1

P-4E-BP1 (T37/46) = experiment: Cell based AlphaLISA assay, inhibition of P-4E-BP1 (T37/46) in MDA-MB-468 cells; conditions: Homo sapiens, 4 h, 0.017-1,000 nM, two to four hours at 37° C., AlphaLisa SureFire Ultra, read-out: pIC50 for Inhibition of mTORC1 and mTORC2 Substrate Phosphorylation, p-4E-BP1-(T37/46) (converted)
Method in brief: as §1

Row | SMILES | IC50 (P-P70S6K (T389)) | IC50 (P-Akt (S473)) | IC50 (P-4E-BP1 (T37/46))
1 | CO[C@H]1C[C@@H]2CC[C@@H](C)[C@@](O)(O2)C(=O)C(=O)N2CCCC[C@H]2C(=O)O[C@H]([C@H](C)C[C@@H]2CC[C@@H](O)[C@H](OC)C2)C[C@@H](O)[C@H](C)/C=C(\C)[C@@H](O)[C@@H](OC)C(=NOCC(=O)NCc2cnc(N3CCN(C(=O)CCOCCN4CCN(c5ncc(C(=O)N6CCc7cc(Cn8nc(-c9ccc%10oc(N)nc%10c9)c9c(N)ncnc98)ccc7C6)cn5)CC4)[C@@H](C(=O)O)C3)nc2)[C@H](C)C[C@H](C)/C=C/C=C/C=C/1C [Example 55] | < 1 nM | > 1000 nM | 3.16 to 31.6 nM
2 | CO[C@H]1C[C@@H]2CC[C@@H](C)[C@@](O)(O2)C(=O)C(=O)N2CCCC[C@H]2C(=O)O[C@H]([C@H](C)C[C@@H]2CC[C@@H](O)[C@H](OC)C2)C[C@@H](O)[C@H](C)/C=C(\C)[C@@H](O)[C@@H](OC)C(=NOCC(=O)N2CCc3nc(N4CCN(C(=O)CCOCCN5CCN(c6ncc(C(=O)N7CCc8cc(Cn9nc(-c%10ccc%11oc(N)nc%11c%10)c%10c(N)ncnc%109)ccc8C7)cn6)CC5)CC4)ncc3C2)[C@H](C)C[C@H](C)/C=C/C=C/C=C/1C [Example 57] | < 1 nM | > 1000 nM | 3.16 to 31.6 nM
3 | CO[C@H]1C[C@@H]2CC[C@@H](C)[C@@](O)(O2)C(=O)C(=O)N2CCCC[C@H]2C(=O)O[C@H]([C@H](C)C[C@@H]2CC[C@@H](O)[C@H](OC)C2)C[C@@H](O)[C@H](C)/C=C(\C)[C@@H](O)[C@@H](OC)C(=NOCC(=O)NCc2cnc(N3CCN(CCOCCN4CCN(c5ncc(C(=O)N6CCc7cc(Cn8nc(-c9ccc%10oc(N)nc%10c9)c9c(N)ncnc98)ccc7C6)cn5)CC4)CC3)nc2)[C@H](C)C[C@H](C)/C=C/C=C/C=C/1C [Example 59] | < 1 nM | > 1000 nM | 3.16 to 31.6 nM
4 | CO[C@H]1C[C@@H]2CC[C@@H](C)[C@@](O)(O2)C(=O)C(=O)N2CCCC[C@H]2C(=O)O[C@H]([C@H](C)C[C@@H]2CC[C@@H](O)[C@H](OC)C2)C[C@@H](O)[C@H](C)/C=C(\C)[C@@H](O)[C@@H](OC)C(=NOCC(=O)N2CCc3nc(N4CCN(CCOCCN5CCN(c6ncc(C(=O)N7CCc8cc(Cn9nc(-c%10ccc%11oc(N)nc%11c%10)c%10c(N)ncnc%109)ccc8C7)cn6)CC5)CC4)ncc3C2)[C@H](C)C[C@H](C)/C=C/C=C/C=C/1C [Example 61] | 1 to 10 nM | > 1000 nM | 3.16 to 31.6 nM
5 | CO[C@H]1C[C@@H]2CC[C@@H](C)[C@@](O)(O2)C(=O)C(=O)N2CCCC[C@H]2C(=O)O[C@H]([C@H](C)C[C@@H]2CC[C@@H](O)[C@H](OC)C2)C[C@@H](O)[C@H](C)/C=C(\C)[C@@H](O)[C@@H](OC)C(=NOCC(=O)NCc2cnc(N3CCN(C(=O)CCOCCN4CCC(N5CCC(C(=O)N6CCc7cc(Cn8nc(-c9ccc%10oc(N)nc%10c9)c9c(N)ncnc98)ccc7C6)CC5)CC4)CC3)nc2)[C@H](C)C[C@H](C)/C=C/C=C/C=C/1C [Example 63] | < 1 nM | > 1000 nM | 3.16 to 31.6 nM
6 | CO[C@H]1C[C@@H]2CC[C@@H](C)[C@@](O)(O2)C(=O)C(=O)N2CCCC[C@H]2C(=O)O[C@H]([C@H](C)C[C@@H]2CC[C@@H](O)[C@H](OC)C2)C[C@@H](O)[C@H](C)/C=C(\C)[C@@H](O)[C@@H](OC)C(=NOCC(=O)NCc2cnc(N3CCN(C(=O)CCCN4CCN(c5ncc(C(=O)N6CCc7cc(Cn8nc(-c9ccc%10oc(N)nc%10c9)c9c(N)ncnc98)ccc7C6)cn5)CC4)CC3)nc2)[C@H](C)C[C@H](C)/C=C/C=C/C=C/1C [Example 65] | 1 to 10 nM | > 1000 nM | 3.16 to 31.6 nM
7 | CO[C@H]1C[C@@H]2CC[C@@H](C)[C@@](O)(O2)C(=O)C(=O)N2CCCC[C@H]2C(=O)O[C@H]([C@H](C)C[C@@H]2CC[C@@H](O)[C@H](OC)C2)C[C@@H](O)[C@H](C)/C=C(\C)[C@@H](O)[C@@H](OC)C(=NOCC(=O)NCc2cnc(N3CCN(C(=O)CCCN4CCN(c5ncc(C(=O)N6CCC(n7nc(-c8ccc9oc(N)nc9c8)c8c(N)ncnc87)CC6)cn5)CC4)CC3)nc2)[C@H](C)C[C@H](C)/C=C/C=C/C=C/1C [Example 66] | 1 to 10 nM | > 1000 nM | > 1000 nM
8 | CO[C@H]1C[C@@H]2CC[C@@H](C)[C@@](O)(O2)C(=O)C(=O)N2CCCC[C@H]2C(=O)O[C@H]([C@H](C)C[C@@H]2CC[C@@H](O)[C@H](OC)C2)CC[C@H](C)/C=C(\C)[C@@H](O)[C@@H](OC)C(=NOCC(=O)NCCOCCOCCOCCOCCOCCOCCOCCOCCC(=O)N2CCc3cc(Cn4nc(-c5ccc6oc(N)nc6c5)c5c(N)ncnc54)ccc3C2)[C@H](C)C[C@H](C)/C=C/C=C/C=C/1C [Example 67] | < 1 nM | 31.6 to 1000 nM | < 3.16 nM
9 | CO[C@H]1C[C@@H]2CC[C@@H](C)[C@@](O)(O2)C(=O)C(=O)N2CCCC[C@H]2C(=O)O[C@H]([C@H](C)C[C@@H]2CC[C@@H](O)[C@H](OC)C2)C[C@@H](O)[C@H](C)/C=C(\C)[C@@H](O)[C@@H](OC)C(=NOCC(=O)NC2CCN(CC(=O)NCCOCCOCCOCCOCCOCCOCCC(=O)N3CCc4cc(Cn5nc(-c6ccc7oc(N)nc7c6)c6c(N)ncnc65)ccc4C3)CC2)[C@H](C)C[C@H](C)/C=C/C=C/C=C/1C [Example 68] | 1 to 10 nM | 31.6 to 1000 nM | 3.16 to 31.6 nM
10 | CO[C@H]1C[C@@H]2CC[C@@H](C)[C@@](O)(O2)C(=O)C(=O)N2CCCC[C@H]2C(=O)O[C@H]([C@H](C)C[C@@H]2CC[C@@H](O)[C@H](OC)C2)C[C@@H](O)[C@H](C)/C=C(\C)[C@@H](O)[C@@H](OC)C(=NOCC(=O)NCCOCCOCCOCCOCCOCCOCCC(=O)NC2CCN(CC(=O)N3CCc4cc(Cn5nc(-c6ccc7oc(N)nc7c6)c6c(N)ncnc65)ccc4C3)CC2)[C@H](C)C[C@H](C)/C=C/C=C/C=C/1C [Example 69] | 1 to 10 nM | > 1000 nM | 3.16 to 31.6 nM
11 | CC(C)n1nc(-c2ccc3oc(N)nc3c2)c2c(N)ncnc21 [MLN-128, MLN0128, reference compound] | 1 to 10 nM | 3.16 to 31.6 nM | 3.16 to 31.6 nM
12 | CO[C@H]1C[C@@H]2CC[C@@H](C)[C@@](O)(O2)C(=O)C(=O)N2CCCC[C@H]2C(=O)O[C@H]([C@H](C)C[C@@H]2CC[C@@H](O)[C@H](OC)C2)CC(=O)[C@H](C)/C=C(\C)[C@@H](O)[C@@H](OC)C(=O)[C@H](C)C[C@H](C)/C=C/C=C/C=C/1C [Rapamycin, (3S,6R,7E,9R, 10R, 12R, 14S, 15E, 17E, 19E,21S,23S,26R,27R,34aS)-9, 10, 12, 13, 14,21,22,23,24,25,26,27,32,33,34,34a-hexadecahydro-9,27-dihydroxy-3-[(1R)-2-[(1 S,3 R,4R)-4-hydroxy-3-methoxycyclohexyl]-1-methylethyl]-10,21-dimethoxy-6,8,12,14,20,26-hexamethyl-23,27-epoxy-3H-pyrido[2,1-c][1,4]-oxaazacyclohentriacontine-1,5,11,28,29(4H,6H,31H)-pentone] | < 1 nM | > 1000 nM | > 1000 nM

Source: patent publication US12187746B2, “C26-linked rapamycin analogs as mTOR inhibitors” (Revolution Medicines, Inc., priority 2018, dated 2025)
